# Test results: ChEMBL document CHEMBL4339208, “6-Bromoindolglyoxylamido derivatives as antimicrobial agents and antibiotic enhancers” (Bioorg Med Chem, 2019)
# Activity calls are given as the source filed them. The rule behind the calls is not given here.
# What was measured:
# Staphylococcus aureus [1] = experiment: Antibacterial activity against Staphylococcus aureus ATCC 25923 measured after 18 hrs by broth dilution method; type: functional; settings: ATCC 25923, 18 h
# [2] = system: Staphylococcus intermedius; experiment: Antibacterial activity against Staphylococcus intermedius 1051997 measured after 18 hrs by broth dilution method; type: functional; settings: Staphylococcus intermedius, 1051997, 18 h
# Escherichia coli [3] = experiment: Antibacterial activity against Escherichia coli ATCC 25922 measured after 18 hrs by broth dilution method; type: functional; settings: ATCC 25922, 18 h
# Pseudomonas aeruginosa [4] = experiment: Antibacterial activity against Pseudomonas aeruginosa ATCC 27853 measured after 18 hrs by broth dilution method; type: functional; settings: ATCC 27853, 18 h
# Klebsiella pneumoniae [5] = experiment: Antibacterial activity against Klebsiella pneumoniae ATCC 700603 measured after 18 hrs by resazurin dye based assay; type: functional; settings: Klebsiella pneumoniae, 700603, 18 h
# Acinetobacter baumannii [6] = experiment: Antibacterial activity against Acinetobacter baumannii ATCC 19606 measured after 18 hrs by resazurin dye based assay; type: functional; settings: ATCC 19606 = CIP 70.34 = JCM 6841, 18 h
# Candida albicans [7] = experiment: Antifungal activity against Candida albicans ATCC 90028 measured after 36 hrs; type: functional; settings: ATCC 90028, 36 h
# Cryptococcus neoformans [8] = experiment: Antifungal activity against Cryptococcus neoformans ATCC 208821 measured after 36 hrs by resazurin dye based assay; type: functional; settings: ATCC 208821, 36 h
# Klebsiella pneumoniae [9] = experiment: Antibacterial activity against Klebsiella pneumoniae ATCC 700603 at 32 ug/ml measured after 18 hrs by resazurin dye based assay; type: functional, organism-based
# Acinetobacter baumannii [10] = experiment: Antibacterial activity against Acinetobacter baumannii ATCC 19606 at 32 ug/ml measured after 18 hrs by resazurin dye based assay; type: functional, organism-based; settings: ATCC 19606 = CIP 70.34 = JCM 6841
# Candida albicans [11] = experiment: Antifungal activity against Candida albicans ATCC 90028 at 32 ug/ml measured after 36 hrs; type: functional, organism-based
# Cryptococcus neoformans [12] = experiment: Antifungal activity against Cryptococcus neoformans ATCC 208821 at 32 ug/ml measured after 36 hrs by resazurin dye based assay; type: functional, organism-based
# Pseudomonas aeruginosa [13] = experiment: Potentiation of doxycycline-induced antibacterial activity against Pseudomonas aeruginosa ATCC 27853 assessed as concentration required to restore 2 ug/ml doxycycline activity measured after 18 hrs; type: functional
# L6 = experiment: Cytotoxicity against rat L6 cells measured after 72 hrs by alamar blue assay; type: cell-based; settings: L6, 72 h
# [14] = (§1) Cytotoxicity against HEK293 cells measured after 20 hrs by resazurin dye based fluorescence assay; type: cell-based, Homo sapiens; settings: human, HEK293 cells
# HEK293 = experiment: as §1; type: cell-based, Homo sapiens; settings: Homo sapiens, HEK293, 20 h
# Pseudomonas aeruginosa [15] = experiment: Potentiation of erythromycin-induced antibacterial activity against Pseudomonas aeruginosa ATCC 27853 assessed as concentration required to restore 2 ug/ml erythromycin activity measured after 18 hrs; type: functional
# Escherichia coli [16] = experiment: Potentiation of erythromycin-induced antibacterial activity against Escherichia coli ATCC 25922 assessed as concentration required to restore 2 ug/ml erythromycin activity measured after 18 hrs; type: functional
# Klebsiella pneumoniae [17] = experiment: Potentiation of erythromycin-induced antibacterial activity against Klebsiella pneumoniae ATCC 700603 assessed as concentration required to restore 2 ug/ml erythromycin activity measured after 18 hrs; type: functional
# Acinetobacter baumannii [18] = experiment: Potentiation of erythromycin-induced antibacterial activity against Acinetobacter baumannii ATCC 19606 assessed as concentration required to restore 2 ug/ml erythromycin activity measured after 18 hrs; type: functional, ATCC 19606 = CIP 70.34 = JCM 6841
# Pseudomonas aeruginosa [19] = experiment: Disruption of membrane integrity in Pseudomonas aeruginosa PAO1 assessed as increase in extracellular ATP level at 10 uL by luciferin-luciferase reagent based luminescence assay; type: functional, organism-based
# Pseudomonas aeruginosa [20] = experiment: Disruption of membrane integrity in Pseudomonas aeruginosa PAO1 assessed as decrease in intracellular ATP level at 1% by luciferin-luciferase reagent based luminescence assay relative to control; type: functional, organism-based; parameters: scale not given: the % may be the effect or the level left
# Staphylococcus aureus [21] = experiment: Disruption of membrane integrity in Staphylococcus aureus ATCC 25923 assessed as increase in extracellular ATP level at 10 uL by luciferin-luciferase reagent based luminescence assay; type: functional, organism-based
# Pseudomonas aeruginosa [22] = experiment: Potentiation of chloramphenicol-induced antibacterial activity against Pseudomonas aeruginosa ATCC 27853 assessed as concentration required to restore 2 ug/ml chloramphenicol activity measured after 18 hrs; type: functional
# Escherichia coli [23] = experiment: Potentiation of chloramphenicol-induced antibacterial activity against Escherichia coli ATCC 25922 assessed as concentration required to restore 2 ug/ml chloramphenicol activity measured after 18 hrs; type: functional
# Klebsiella pneumoniae [24] = experiment: Potentiation of chloramphenicol-induced antibacterial activity against Klebsiella pneumoniae ATCC 700603 assessed as concentration required to restore 2 ug/ml chloramphenicol activity measured after 18 hrs; type: functional
# Acinetobacter baumannii [25] = experiment: Potentiation of chloramphenicol-induced antibacterial activity against Acinetobacter baumannii ATCC 19606 assessed as concentration required to restore 2 ug/ml chloramphenicol activity measured after 18 hrs; type: functional, ATCC 19606 = CIP 70.34 = JCM 6841
# Erythrocyte [26] = experiment: Hemolytic activity against human RBC incubated for 10 mins under shaking condition measured after 1 hr; type: ADME, cell-based
# Erythrocyte [27] = experiment: Hemolytic activity against human RBC at 32 ug/ml incubated for 10 mins under shaking condition measured after 1 hr; type: ADME, cell-based
# Staphylococcus aureus [28] = experiment: Induction of membrane depolarization in Staphylococcus aureus ATCC 25923 measured after 15 mins by DiSC3(5) dye based spectrofluorometric method; type: functional, organism-based
compound,measurement,setting,value
O=C(NCCCCCCCCCCCCNC(=O)C(=O)c1c[nH]c2cc(Br)ccc12)C(=O)c1c[nH]c2cc(Br)ccc12,MIC,Staphylococcus aureus [1],> 200 µM
same,MIC,[2],100 µM
same,MIC,Escherichia coli [3],> 200 µM
same,MIC,Pseudomonas aeruginosa [4],> 200 µM
same,MIC,Klebsiella pneumoniae [5],> 46 µM
same,MIC,Acinetobacter baumannii [6],> 46 µM
same,MIC,Candida albicans [7],> 46 µM
same,MIC,Cryptococcus neoformans [8],> 46 µM
same,Activity,Klebsiella pneumoniae [9],inactive
same,Activity,Acinetobacter baumannii [10],inactive
same,Activity,Candida albicans [11],inactive
same,Activity,Cryptococcus neoformans [12],inactive
same,Activity,Pseudomonas aeruginosa [13],>200 µM
same,IC50,L6,89.1 µM
same,CC50 at 20 h,[14],> 46 µM
CC/C(=C(\c1ccccc1)c1ccc(OCCN(C)C)cc1)c1ccccc1 [TAMOXIFEN],IC50,HEK293,24 µM
CC[C@H]1OC(=O)[C@H](C)[C@@H](O[C@H]2C[C@@](C)(OC)[C@@H](O)[C@H](C)O2)[C@H](C)[C@@H](O[C@@H]2O[C@H](C)C[C@H](N(C)C)[C@H]2O)[C@](C)(O)C[C@@H](C)C(=O)[C@H](C)[C@@H](O)[C@]1(C)O [ERYTHROMYCIN],MIC,Escherichia coli [3],> 200 µM
same,MIC,Pseudomonas aeruginosa [4],> 200 µM
same,MIC,Klebsiella pneumoniae [5],> 200 µM
same,MIC,Acinetobacter baumannii [6],200 µM
same,Activity,Pseudomonas aeruginosa [15],200 µM
same,Activity,Escherichia coli [16],50 µM
same,Activity,Klebsiella pneumoniae [17],50 µM
same,Activity,Acinetobacter baumannii [18],25 µM
Cetyl trimethylammonium bromide,Activity,Pseudomonas aeruginosa [19],Active
same,Activity,Pseudomonas aeruginosa [20],10%
same,Activity,Staphylococcus aureus [21],Active
O=C(N[C@H](CO)[C@H](O)c1ccc([N+](=O)[O-])cc1)C(Cl)Cl [CHLORAMPHENICOL],MIC,Staphylococcus aureus [1],1.5 to 3 µM
same,MIC,[2],3 to 6 µM
same,MIC,Escherichia coli [3],> 200 µM
same,MIC,Pseudomonas aeruginosa [4],> 200 µM
same,MIC,Klebsiella pneumoniae [5],50 µM
same,MIC,Acinetobacter baumannii [6],> 200 µM
same,Activity,Pseudomonas aeruginosa [22],>200 µM
same,Activity,Escherichia coli [23],>200 µM
same,Activity,Klebsiella pneumoniae [24],200 µM
same,Activity,Acinetobacter baumannii [25],>200 µM
O=C(NCCCNCCCCCCCNCCCNC(=O)C(=O)c1c[nH]c2cc(Br)ccc12)C(=O)c1c[nH]c2cc(Br)ccc12.O=C(O)C(F)(F)F.O=C(O)C(F)(F)F,MIC,Staphylococcus aureus [1],6.4 µM
same,MIC,Escherichia coli [3],51.4 µM
same,MIC,Pseudomonas aeruginosa [4],51.4 µM
same,MIC,Klebsiella pneumoniae [5],> 33 µM
same,MIC,Acinetobacter baumannii [6],> 33 µM
same,MIC,Candida albicans [7],16.5 µM
same,MIC,Cryptococcus neoformans [8],> 33 µM
same,Activity,Klebsiella pneumoniae [9],inactive
same,Activity,Acinetobacter baumannii [10],inactive
same,Activity,Cryptococcus neoformans [12],inactive
same,Activity,Pseudomonas aeruginosa [13],12.9 µM
same,IC50,L6,4.4 µM
same,CC50 at 20 h,[14],10.6 µM
same,HC10,Erythrocyte [26],> 33 µM
same,Activity,Erythrocyte [27],Non-Toxic
CC(C)[C@@H](CC[C@@H](C)[C@H]1CC[C@H]2[C@@H]3[C@H](O)C[C@H]4C[C@@H](NCCCNCCCCN)CC[C@]4(C)[C@H]3CC[C@]12C)OS(=O)(=O)O,Activity,Staphylococcus aureus [28],Dose-dependent effect
